Measured values published in patent US20220105189A1, “POLYETHYLENE GLYCOL CONJUGATED DRUG AND ITS PREPARATION METHOD AND USE” (CHONGQING UPGRA BIOTECHNOLOGY CO., LTD., priority 2019, published 2022).

Test system: human colon cancer cell colo205
Experiment: Anti-tumor efficacy on subcutaneously transplanted tumor of colo205 (Experimental Example 2)
Assay type: in vivo, Balb/c nude mice
Details: colo205, Day 19; 23-161 16.06 mg/kg tail vein; PCB 1.73 mg/kg oral
Description: 1. Tumor strain and transplantation method of solid tumor: Human colon cancer cell colo205 was routinely preserved in the cell room of the State Key Laboratory of Molecular Oncology, Institute of Cancer Research, Chinese Academy of Medical Sciences. The tumor cells were taken out of liquid nitrogen, quickly thawed at 37° C., resuscitated and expanded, and then inoculated subcutaneously in the right axillary of healthy Balb/c mice. When the transplanted tumor grew to about 1.0 cm in diameter, the mice were sacrificed. Under aseptic conditions, the tumors were peeled off for passage by conventional methods.
2. Tumor inoculation and grouping: the tumor-bearing mice were sacrificed, the tumors were peeled off under aseptic condition and washed with normal saline several times, the necrotic tissues were removed, the well-growing tumor tissues were selected and divided into 2×2 mm tissue blocks, and the tumor tissue blocks were inoculated subcutaneously in the right axillary with a special metal trocar. After the transplantation of the tumor tissue blocks, administration in groups was carried out on the day of the transplantation.
3. […]
4. Data collection: the mice were weighed, the volume of tumors was measured, the mice were scarified on Day 19, the tumors were weighed, and the tumor inhibition rate (%) was calculated. […]

With `CC(=O)c1c(C)c2cnc(Nc3ccc(N4CCNCC4)cn3)nc2n(C2CCCC2)c1=O` [PCB, Palbociclib] the Tumor inhibition rate was −5.8% and the “Tumor weight (g) Average” value was 0.39 g.
